According to article PMC5408701, “Isomaltooligosaccharide-binding structure of Paenibacillus sp. 598K cycloisomaltooligosaccharide glucanotransferase” (Bioscience Reports, 2017):

Target: T1, PsCITase (core domain) (Paenibacillus sp. 598K, UniProt G9MBW2)
T1 construct: gene cit; core domain 41-739 (N-terminal 40 and C-terminal 235 residues, incl. CBM35-2, removed), N-terminal pET15b His tag (numbered Met21-Met40), E. coli BL21(DE3); full length 972 residues
Test: X-ray crystallography, crystal soaked with […] CI-7, […] A
Format: binding

T1 sequence (G9MBW2 entry or part of it): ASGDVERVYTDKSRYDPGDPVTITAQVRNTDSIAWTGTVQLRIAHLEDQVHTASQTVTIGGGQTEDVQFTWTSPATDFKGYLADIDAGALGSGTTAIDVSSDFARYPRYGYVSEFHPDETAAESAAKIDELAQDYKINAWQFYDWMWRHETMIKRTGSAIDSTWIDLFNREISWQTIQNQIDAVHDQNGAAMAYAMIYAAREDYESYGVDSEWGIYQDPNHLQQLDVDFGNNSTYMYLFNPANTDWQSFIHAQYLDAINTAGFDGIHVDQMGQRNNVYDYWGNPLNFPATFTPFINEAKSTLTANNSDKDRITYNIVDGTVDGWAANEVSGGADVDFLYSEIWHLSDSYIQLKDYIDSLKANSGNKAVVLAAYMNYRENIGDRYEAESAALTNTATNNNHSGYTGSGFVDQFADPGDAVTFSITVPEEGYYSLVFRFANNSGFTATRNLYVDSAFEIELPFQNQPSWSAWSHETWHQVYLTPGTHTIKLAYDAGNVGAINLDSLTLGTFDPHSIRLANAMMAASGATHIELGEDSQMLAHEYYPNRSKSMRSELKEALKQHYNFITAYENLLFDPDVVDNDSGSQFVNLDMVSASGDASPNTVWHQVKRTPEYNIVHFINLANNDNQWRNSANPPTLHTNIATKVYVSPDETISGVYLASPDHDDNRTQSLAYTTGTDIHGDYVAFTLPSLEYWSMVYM

Row | Compound | X-ray crystallography, crystal soaked with 5% CI-7, 2.60 A (variable loop (canonical) site of PsCBM35-1, Trp507, on crystallographic two-fold axis, averaged density, soaked CI-7 is hydrolysed at the catalytic site) | X-ray crystallography, crystal soaked with 5% CI-7, 2.60 A (catalytic cleft, subsites -7 to -1, hydrolysis product of soaked CI-7, Glc-1 density ambiguous)
1 | O[C@@H]1[C@@H](O)[C@H]2OC[C@H]3O[C@H](OC[C@H]4O[C@H](OC[C@H]5O[C@H](OC[C@H]6O[C@H](OC[C@H]7O[C@H](OC[C@H]8O[C@H](OC[C@@H](O2)[C@H]1O)[C@H](O)[C@@H](O)[C@@H]8O)[C@H](O)[C@@H](O)[C@@H]7O)[C@H](O)[C@@H](O)[C@@H]6O)[C@H](O)[C@@H](O)[C@@H]5O)[C@H](O)[C@@H](O)[C@@H]4O)[C@H](O)[C@@H](O)[C@@H]3O [CI-7, cycloisomaltoheptaose] | The bound sugar appeared to be soaked CI-7 with the cyclic sugar chain structure | 
2 | OC[C@H]1O[C@H](OC[C@H]2O[C@H](OC[C@H]3O[C@H](OC[C@H]4O[C@H](OC[C@H]5O[C@H](OC[C@H]6O[C@H](OC[C@H]7OC(O)[C@H](O)[C@@H](O)[C@@H]7O)[C@H](O)[C@@H](O)[C@@H]6O)[C@H](O)[C@@H](O)[C@@H]5O)[C@H](O)[C@@H](O)[C@@H]4O)[C@H](O)[C@@H](O)[C@@H]3O)[C@H](O)[C@@H](O)[C@@H]2O)[C@H](O)[C@@H](O)[C@@H]1O (some centres unmarked) [IG-7, isomaltoheptaose] |  | the bound CI-7 was observed as the cleaved linear form like isomaltoheptaose (IG-7)
